Assay results: PMC12382614, “(Oxidopyridyl)Porphyrins of Different Lipophilicity: Photophysical Properties, ROS Production and Phototoxicity on Melanoma Cells Under CoCl2-Induced Hypoxia” (Antioxidants, 2025)
“And” between values parts separate entries of the source, which are not always exact repeats. Identical values can stand only once. Like-named read-outs stand apart in the source and are kept apart here. Each block holds one compound with its values, some of them ahead of it.

Columns and labels:
HIF-1α = assay: Hypoxia induction with CoCl2, Western blot; format: cell-based, human; conditions: A375 cell line, 100 μM CoCl2 in DMEM, 1 and 2 h
Protocol: The cells were seeded into 12-well plates at a concentration of 10^5 cells/well. After the cells had reached full morphology (approx. 48 h), the medium was replaced with fresh medium containing cobalt(II) chloride (CoCl2) at a concentration of 100 μM, followed by incubation at 37 °C for 1 and 2 h. In the control sample, fresh medium without CoCl2 was added. After the incubation, cells were kept on ice and washed with ice-cold 1x PBS. After removing the 1x PBS, the cells were lysed with ice-cold radio-immunoprecipitation assay buffer (RIPA) buffer (50 mM Tris, 150 mM NaCl, 0.5% sodium deoxycholate, and 1% Triton X-100) and then incubated on ice for 30 min. The cells were centrifuged at 14,000 rpm at 4 °C for 10 min to separate the DNA in pellets and proteins in the supernatant. The supernatant was collected, and 4× Laemmli sample buffer (50 mM Tris pH 6.8, 10% glycerol, 2% SDS, 2% 2-mercaptoethanol, and 0.04% bromophenol blue) was added. The samples were heated at 95 °C for 10 min before separation on 10% polyacrylamide gels (SDS-PAGE). All gels were transferred to nitrocellulose membranes using the semi-dry transfer system at 100 V (Trans-Blot Turbo RTA Transfer kit, Bio Rad, Hercules, CA, USA, #1704270). […]

MeWo = assay: Photocytotoxicity, MTT assay; format: cell-based, human; conditions: for IC50: Homo sapiens, MeWo, light or radiation study
Protocol: (§1) For (photo)cytotoxicity assays, stock solutions of porphyrins were prepared in DMSO and dissolved in DMEM to the final concentrations. The porphyrin incubation time was 6h. Irradiation of the cells was with red light (λ = 643 nm) for 30 min (light dose, 3.6 J/cm^2). Nonirradiated cells were used to test the dark toxicity. All measurements were performed in three individual experiments, and the results are shown as the proliferation (%) of the cells and were calculated as IC50 values.
(§2) The cytotoxicity of (oxidopyridyl)porphyrins was assessed by an MTT assay on the HDF, MeWo and A375 cell lines after 6 h of incubation with porphyrins, without irradiation, or after 30 min of irradiation with red light (λ = 643 nm), and under conditions of normoxia or hypoxia. To induce hypoxia, 100 µM of CoCl2 was added at least two hours before the porphyrins. […] Oxygen is also one of the substrates for the activity of prolyl hydroxylases; therefore, in both cases, the result is the blockage of hydroxylation of HIF-1α and, consequently, its increase and stabilisation, which, in the case of CoCl2-induced hypoxia, can be maintained for several hours.

A375 = assay: Photocytotoxicity, MTT assay; format: cell-based, human; conditions: for IC50: Homo sapiens, A-375, light or radiation study
Protocol: as §1, §2

HDF = assay: Photocytotoxicity, MTT assay; format: cell-based, human; conditions: Homo sapiens, HDF, light or radiation study
Protocol: as §1, §2

[1] = tested on: HDF, MeWo and A375 cell lines; assay: (Photo)cytotoxicity MTT assay, statements made for all cell lines; format: cell-based, human
Protocol: as §1, §2

[2] = N-methylated analogue; cited from earlier work
[3] = cited from earlier work; for ΦISC: N-methyl porphyrin analogues; for τT (lifetime of 3PS*): N-methylated counterparts
[4] = Fluorescence decay by time-correlated single-photon counting (TC-SPC); format: physicochemical; conditions: MeOH, N2, λex 405 nm
Protocol: Time-correlated single-photon counting (TC-SPC) was used to obtain information about fluorescence decays. All measurements were performed on an FS5 Edinburgh Instruments device with a pulsed laser at 405 nm wavelength, which was used for the excitation process (pulse duration 60 ps). Fluorescence signals were monitored at 660 nm over 1023 channels, with a time increment of ≈49 ps/channel. Porphyrins were dissolved in MeOH (HPLC grade), with the absorbance adjusted to 0.1 a.u. at the excitation wavelength, and the solution was degassed with N2 for 15 min before the measurements were taken. All the decays were collected until they reached 3000 counts in the peak channel. A scattering solution, a silica gel suspension in H2O, was used to obtain the instrument response function (IRF). The histograms were analysed using a nonlinear least-squares deconvolution method via the software implemented with the instrument.

[5] = Laser flash photolysis (LFP), triplet excited state properties; format: physicochemical; conditions: MeOH
Protocol: Laser flash photolysis (LFP) was performed using an LP980 transient absorption spectrometer (Edinburgh Instruments) equipped with a continuous beam (or pulse mode) Xenon lamp passing through the sample. A nanosecond Nd:YAG laser (Quantel, Q-smart 450, 5 ns pulse duration, 10 Hz, excitation wavelength 355 nm) was then used to excite the sample perpendicular to the lamp beam. The laser beam energy was adjusted to below 5 mJ. The ground state absorbance of the porphyrins in MeOH was adjusted to 0.20–0.25 at 355 nm (the laser excitation wavelength) and the solutions were purged with high-purity N2 for at least 15 min prior to taking the measurements. The samples were prepared for kq determination in an air atmosphere that was N2-purged for 15 min and O2-purged for 15 min before the measurements were taken. The ground state absorption spectra of the samples were also recorded after purging the sample with N2 or O2, and after transient absorption (TAS) measurements were taken to track the differences in every step of the measurement process to ensure that no photoproducts were formed. All measurements were performed at 25 °C in 1 cm quartz cuvettes. Laser flash photolysis was used to measure the kinetics of triplet state depopulation (τT) and triplet-triplet absorption spectra, and to calculate the intersystem crossing quantum yield (ΦISC) and quenching rate constants of triplet excited states by molecular oxygen (kq). To calculate ΦISC, the first step was the calculation of the molar absorption coefficient of the triplet state using the singlet depletion method, completing the first step according to Equation (S2). The ΦISC values were estimated by using a comparative method with TPP (ΦISC = 0.87 in toluene) as the standard. The ΦISC was calculated according to Equation (S3). Triplet excited state lifetimes were determined by fitting the triplet decays to the equation for the mixed first- and second-order decay, as previously described, and the quenching rate constant of a triplet excited state by molecular oxygen was calculated using the Stern–Volmer equation (Equation (S4)).

[6] = Fluorescence spectra and fluorescence quantum yield in MeOH; format: physicochemical
Protocol: (§3) The absorption spectra of (oxidopyridyl)porphyrins were recorded in HPLC grade MeOH on a Cary UV 60 (Agilent Technologies, Santa Clara, CA, USA), in a wavelength range of 300–700 nm. The fluorescence spectra in HPLC grade MeOH were recorded on a Cary Eclipse (Agilent Technologies) in a wavelength range of 500–800 nm after excitation at the Soret band wavelength (λ ~ 420 nm). The slits of the spectrometer were set to a bandpass of 5 nm for the excitation and 5 nm for the emission. To calculate the fluorescence quantum yields, the measurements were conducted on an FS5 Edinburgh Instruments spectrometer. Prior to taking the measurements, the solutions were purged with high-purity N2 for at least 15 min. The absorbance of the solutions was set to A < 0.1 at 405 nm and 550 nm, which settings were used for the excitation process. Emission was recorded from 550 to 800 nm, with slits set to the bandpass corresponding to 2 nm for the excitation, and 3 nm for the emission. Fluorescence quantum yield (ΦFL) was calculated in comparison to the tetraphenylporphyrin (TPP; ΦFL = 0.11 [23]) as a standard, according to Equation (S1) and following an equation previously described elsewhere.

[7] = UV-Vis absorption spectra in MeOH; format: physicochemical
Protocol: as §3

[8] = red light 643 nm 30 min, CoCl2-induced hypoxia
[9] = red light 643 nm 30 min, normoxia

SMILES: [Cl-].[Cl-].[Co+2] [CoCl2, Cobalt(II) chloride]
HIF-1α protein level (Western blot, normalised to β-actin) (HIF-1α): accumulation of HIF-1α

SMILES: CCCCCCCCCCCCCCCCCC(=O)Nc1ccc(-c2c3nc(c(-c4ccc[n+](C)c4)c4ccc([nH]4)c(-c4ccc[n+](C)c4)c4nc(c(-c5ccc[n+](C)c5)c5ccc2[nH]5)C=C4)C=C3)cc1.[Cl-].[Cl-].[Cl-] [TMPyP3-C17H35, 5-(4-Octadecanamidophenyl)-10,15,20-Tris(N-Methylpyridinium-3-Yl)Porphyrin Trichloride]
IC50 (MeWo; read-out: IC50 MeWo CoCl2): 0.47 ± 0.02 µM | IC50 (MeWo; read-out: IC50 MeWo No CoCl2): 0.33 ± 0.04 µM | SI (IC50 (HDF) / IC50 (melanoma cells)) MeWo 100 µM CoCl2 (MeWo; [8]): 1.0 | SI (IC50 (HDF) / IC50 (melanoma cells)) MeWo No CoCl2 (MeWo; [9]): 1.0 | IC50 (A375; read-out: IC50 A375 CoCl2): 0.23 ± 0.07 µM | IC50 (A375; read-out: IC50 A375 No CoCl2): 0.15 ± 0.08 µM | SI (IC50 (HDF) / IC50 (melanoma cells)) A375 100 µM CoCl2 (A375; [8]): 2.0 | SI (IC50 (HDF) / IC50 (melanoma cells)) A375 No CoCl2 (A375; [9]): 2.2 | IC50 (HDF; read-out: IC50 HDF CoCl2): 0.46 ± 0.14 µM | IC50 (HDF; read-out: IC50 HDF No CoCl2): 0.33 ± 0.03 µM | IC50 ([1]; Homo sapiens, light or radiation study, read-out: IC50 in all the tested cells): ≤ 1000 nM | ΦFL (fluorescence quantum yield) [2]: 0.105 | ΦISC [3]: 0.38 | τT (lifetime of 3PS*) [3]: 0.74 ms

SMILES: CC(=O)Nc1ccc(-c2c3nc(c(-c4ccc[n+](C)c4)c4ccc([nH]4)c(-c4ccc[n+](C)c4)c4nc(c(-c5ccc[n+](C)c5)c5ccc2[nH]5)C=C4)C=C3)cc1.[Cl-].[Cl-].[Cl-] [TMPyP3-CH3, 5-(4-Acetamidophenyl)-10,15,20-Tris(N-Methylpyridinium-3-Yl)Porphyrin Trichloride]
IC50 (MeWo; read-out: IC50 MeWo CoCl2): > 100 µM | IC50 (MeWo; read-out: IC50 MeWo No CoCl2): > 100 µM | IC50 (A375; read-out: IC50 A375 CoCl2): > 100 µM | IC50 (A375; read-out: IC50 A375 No CoCl2): > 100 µM | IC50 (HDF; read-out: IC50 HDF CoCl2): > 100 µM | IC50 (HDF; read-out: IC50 HDF No CoCl2): > 100 µM | ΦFL (fluorescence quantum yield) [2]: 0.072 | ΦISC [3]: 0.34 | τT (lifetime of 3PS*) [3]: 0.77 ms

contribution of τ1 (% of the decay) [4]: 2% | contribution of τ2 (% of the decay) [4]: 98% | τFL, longer decay time τ2 [4]: 8.62 ± 0.02 ns and 8.62 ns | τFL, short decay time τ1 [4]: 0.82 ± 0.08 ns and 0.82 ns | τT (lifetime of 3PS*) [5]: 1.1 ms | τT (lifetime of the triplet excited state) ([5]; N2-purged, 25 °C): 1100 ± 200 μs | kq (O2) (quenching rate constant of the triplet excited state by O2) ([5]; Stern–Volmer): 1.3e+09 M⁻¹ s⁻¹ | ΦISC (quantum yield of intersystem crossing) ([5]; comparative method with TPP, estimated): 0.66 | εT-T (molar absorption coefficient of the triplet state) ([5]; singlet depletion method): 47 000 M^−1cm^−1 | ΦFL (fluorescence quantum yield) ([6]; N2-purged, TPP as reference): 0.050 ± 0.002 | λFL Q(0,0) ([6]; excitation at Soret band): 648 nm | λFL Q(0,1) ([6]; excitation at Soret band): 713 nm | ε Qx (0-0) [7]: 1900 M⁻¹ cm⁻¹ | ε Qx (1-0) [7]: 5800 M⁻¹ cm⁻¹ | ε Qy (0-0) [7]: 5200 M⁻¹ cm⁻¹ | ε Qy (1-0) [7]: 18200 M⁻¹ cm⁻¹ | ε Soret (B) [7]: 346900 M⁻¹ cm⁻¹ | λabs Qx (0-0) [7]: 645 nm | λabs Qx (1-0) [7]: 588 nm | λabs Qy (0-0) [7]: 545 nm | λabs Qy (1-0) [7]: 510 nm | λabs Soret (B) [7]: 416 nm
SMILES: CC(=O)Nc1ccc(-c2c3nc(c(-c4ccc[n+]([O-])c4)c4ccc([nH]4)c(-c4ccc[n+]([O-])c4)c4nc(c(-c5ccc[n+]([O-])c5)c5ccc2[nH]5)C=C4)C=C3)cc1 [TOPyP3-CH3, 5-(4-Acetamidophenyl)-10,15,20-tris(1-oxido-3-pyridyl)porphyrin]
IC50 (MeWo; 6 h incubation, red light 643 nm 30 min, 3.6 J/cm^2, 100 μM CoCl2 at least 2 h before porphyrin, read-out: IC50 MeWo CoCl2): > 100 µM | IC50 (MeWo; 6 h incubation, red light 643 nm 30 min, 3.6 J/cm^2, normoxia, read-out: IC50 MeWo No CoCl2): > 100 µM | IC50 (A375; 6 h incubation, red light 643 nm 30 min, 3.6 J/cm^2, 100 μM CoCl2 at least 2 h before porphyrin, read-out: IC50 A375 CoCl2): > 100 µM | IC50 (A375; 6 h incubation, red light 643 nm 30 min, 3.6 J/cm^2, normoxia, read-out: IC50 A375 No CoCl2): > 100 µM | IC50 (HDF; 6 h incubation, red light 643 nm 30 min, 3.6 J/cm^2, 100 μM CoCl2 at least 2 h before porphyrin, read-out: IC50 HDF CoCl2): > 100 µM | IC50 (HDF; 6 h incubation, red light 643 nm 30 min, 3.6 J/cm^2, normoxia, read-out: IC50 HDF No CoCl2): > 100 µM | phototoxicity / reduction of proliferation at 1 µM ([1]; 1 µM, irradiation 643 nm, normoxia or CoCl2-induced hypoxia): did not appear to reduce the proliferation
